Legend:
interferon = experiment: Interferon induction in mice; assay type: in vivo; conditions: mouse serum
Procedure: One hour later blood samples are withdrawn from the first group. The samples are pooled then centrifuged. The serum is removed from the centrifuge tube, split into two portions, then placed in freezing vials and maintained at −70° C. until analysis. This procedure is repeated at 2 hours with the second group of mice and at 4 hours with the third group of mice. Samples are assayed as described above in connection with the analysis of interferon induction in human cells. The results are expressed in the table below as α/β reference units/mL based on the value obtained for a mouse MU-1-IF standard. Results are shown in the table below wherein results designated as “<” a certain number indicate that interferon was not detectable in amounts above the lower sensitivity level of the assay.

interferon-α = experiment: Interferon-α induction in human cells, PBM; assay type: cell-based; conditions: 24 hours
[1] = tested on: vesicular stomatitis virus (VSV); experiment: microbe, parasite or virus in culture; assay type: cell-based; conditions: Vesicular stomatitis virus, read-out: VSV Yield Inhibition

| Structure (SMILES) | Interferon induction in mice (interferon; oral 0.3 mg/kg, 1 hr) [Reference Units/mL] | Interferon induction in mice (interferon; oral 0.3 mg/kg, 2 hr) [Reference Units/mL] | Interferon induction in mice (interferon; oral 0.3 mg/kg, 4 hr) | Interferon induction in mice (interferon; oral 1 mg/kg, 1 hr) [Reference Units/mL] | Interferon induction in mice (interferon; oral 1 mg/kg, 2 hr) [Reference Units/mL] | Interferon induction in mice (interferon; oral 1 mg/kg, 4 hr) [Reference Units/mL] | Interferon induction in mice (interferon; oral 3 mg/kg, 1 hr) | Interferon induction in mice (interferon; oral 3 mg/kg, 2 hr) [Reference Units/mL] | Interferon induction in mice (interferon; oral 3 mg/kg, 4 hr) | Interferon induction in mice (interferon; oral 10 mg/kg, 1 hr) [Reference Units/mL] | Interferon induction in mice (interferon; oral 10 mg/kg, 2 hr) [Reference Units/mL] | Interferon induction in mice (interferon; oral 10 mg/kg, 4 hr) | Interferon-α induction (interferon-α; dose concentration 0.01 μg/mL) | Interferon-α induction (interferon-α; dose concentration 0.10 μg/mL) | Interferon-α induction (interferon-α; dose concentration 0.50 μg/mL) | Interferon-α induction (interferon-α; dose concentration 1.0 μg/mL) | Interferon-α induction (interferon-α; dose concentration 5.0 μg/mL) | log reduction at 0.1 µg/mL [1] | log reduction at 0.5 µg/mL [1] | log reduction at 1 µg/mL [1] | also measured |
| --- | --- | --- | --- | --- | --- | --- | --- | --- | --- | --- | --- | --- | --- | --- | --- | --- | --- | --- | --- | --- | --- |
| Nc1nc2ccccc2c2c1nc(CO)n2Cc1ccccc1 [Example 27, 4-Amino-1-phenylmethyl-1H-imidazo[4,5-c]-quinoline-2-methanol] | <45 | <45 | <45 Reference Units/mL | <45 | <45 | <45 | <59 Reference Units/mL | 230 | <45 Reference Units/mL | 130 | 690 | <45 Reference Units/mL | <4 α Reference Units/mL | 3300 α Reference Units/mL | 550 α Reference Units/mL | 370 α Reference Units/mL | 490 α Reference Units/mL | 4 | 3 | 4 | Interferon-α induction (interferon-α; dose concentration 0.05 μg/mL): 24 α Reference Units/mL |
| COC(C)Cc1nc2c(N)nc3ccccc3c2n1CC(C)C (stereo not drawn) [Example 77, 2-(2-Methoxypropyl)-1-(2-methylpropyl)-1H-imidazo[4,5-c]quinolin-4-amine] | – | – | – | – | – | – | – | – | – | – | – | – | <6.3 α Reference Units/mL | 2600 α Reference Units/mL | 390 α Reference Units/mL | 250 α Reference Units/mL | 280 α Reference Units/mL | 3 | 5 | 5 | Interferon-α induction (interferon-α; dose concentration 0.05 μg/mL): <6.3 α Reference Units/mL |
| COCCc1nc2c(N)nc3ccccc3c2n1CC(C)C [Example 72, 2-(2-Methoxyethyl)-1-(2-methylpropyl)-1H-imidazo[4,5-c]quinolin-4-amine] | – | – | – | – | – | – | – | – | – | – | – | – | – | 200 α Reference Units/mL | 210 α Reference Units/mL | 220 α Reference Units/mL | 420 α Reference Units/mL | 5 | 5 | 5 | – |
| CCOCc1nc2c(N)nc3ccccc3c2n1Cc1ccccc1 [Example 93, 2-Ethoxymethyl-1-phenylmethyl-1H-imidazo[4,5-c]quinolin-4-amine] | 400 | 360 | ≦150 Reference Units/mL | 660 | 1500 | 340 | 1300 Reference Units/mL | 1300 | ˜260 Reference Units/mL | 2100 | 2900 | 630 Reference Units/mL | – | 850 α Reference Units/mL | 280 α Reference Units/mL | 300 α Reference Units/mL | 300 α Reference Units/mL | 0 | 5 | 5 | – |
| CC(=O)NCc1nc2c(N)nc3ccccc3c2n1CC(C)C [Example 15, N-Acetyl-4-amino-1-(2-methylpropyl)-1H-imidazo-[4,5-c]quinoline-2-methanamine] | <120 | <120 | <120 Reference Units/mL | <120 | <120 | <120 | <120 Reference Units/mL | 270 | <120 Reference Units/mL | 270 | 3100 | 270 Reference Units/mL | – | <1.8 α Reference Units/mL | 250 α Reference Units/mL | 430 α Reference Units/mL | 750 α Reference Units/mL | – | – | 6 | log reduction at 5 µg/mL [1]: 5; log reduction at 10 µg/mL [1]: 5 |
| CCOCc1nc2c(N)nc3ccccc3c2n1CC(C)C [Example 40, 2-Ethoxymethyl-1-(2-methylpropyl)-1H-imidazo[4,5-c]quinolin-4-amine] | 450 | 200 | <29 Reference Units/mL | 450 | 450 | 110 | 990 Reference Units/mL | 1100 | 210 Reference Units/mL | 1600 | 1600 | 170 Reference Units/mL | – | 680 α Reference Units/mL | 230 α Reference Units/mL | 210 α Reference Units/mL | 210 α Reference Units/mL | – | – | 7 | log reduction at 5 µg/mL [1]: 7; log reduction at 10 µg/mL [1]: 6 |
| CC(C)(O)Cn1c(CO)nc2c(N)nc3ccccc3c21 [Example 90, 4-Amino-α,α-dimethyl-2-hydroxymethyl-1H-imidazo[4,5-c]quinoline-1-ethanol] | <74 | <74 | <74 Reference Units/mL | <74 | <74 | <74 | ≦130 Reference Units/mL | 570 | ≦74 Reference Units/mL | 750 | 3500 | ≦140 Reference Units/mL | <6.4 α Reference Units/mL | 3000 α Reference Units/mL | 640 α Reference Units/mL | 420 α Reference Units/mL | 580 α Reference Units/mL | 5 | 4 | 5 | Interferon-α induction (interferon-α; dose concentration 0.05 μg/mL): 640 α Reference Units/mL |
| COC(C)c1nc2c(N)nc3ccccc3c2n1CC(C)C (stereo not drawn) [Example 66, 2-(1-Methoxyethyl)-1-(2-methylpropyl)-1H-imidazo[4,5-c]quinolin-4-amine] | <56 | <56 | <56 Reference Units/mL | <56 | <56 | <56 | <74 Reference Units/mL | <120 | <56 Reference Units/mL | 1100 | 2600 | 380 Reference Units/mL | – | <5 α Reference Units/mL | <5 α Reference Units/mL | 1000 α Reference Units/mL | 1000 α Reference Units/mL | 2 | 2 | 3 | – |
| COC(c1ccccc1)c1nc2c(N)nc3ccccc3c2n1CC(C)C (stereo not drawn) [Example 51, 2-(α-Methoxybenzyl)-1-(2-methylpropyl)-1H-imidazo[4,5-c]quinolin-4-amine] | – | – | – | – | – | – | – | – | – | – | – | – | – | <5 α Reference Units/mL | <5 α Reference Units/mL | 1000 α Reference Units/mL | 330 α Reference Units/mL | 0 | 1 | 5 | – |

Reference: US6465654B2, “Process for preparing 1-substituted, 2-substituted 1H-imidazo[4, 5-c]quinoline-4-amines” (3M Innovative Properties Company, priority 1991, dated 2002)
